From paper PMC9462760, “A potent and selective inhibitor for the modulation of MAGL activity in the neurovasculature” (PLoS ONE, 2022)

Legend:
[1] = target: T1, Monoacylglycerol lipase (MAGL) (Homo sapiens, UniProt Q99685); assay: competitive ABPP in human brain lysate at […] ([…] decrease of MAGL signal); type: cell-based
T1 construct: gene MGLL
T1 sequence (Q99685 1-303): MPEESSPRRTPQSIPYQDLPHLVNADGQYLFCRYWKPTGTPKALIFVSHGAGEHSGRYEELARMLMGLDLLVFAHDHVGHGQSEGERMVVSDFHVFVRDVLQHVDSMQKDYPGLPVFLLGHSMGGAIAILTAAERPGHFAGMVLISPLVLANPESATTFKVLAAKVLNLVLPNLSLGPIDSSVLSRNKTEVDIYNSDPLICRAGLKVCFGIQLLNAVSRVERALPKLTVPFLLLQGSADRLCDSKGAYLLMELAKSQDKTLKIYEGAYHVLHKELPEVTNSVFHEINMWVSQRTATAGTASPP

[2] = target: T2, Monoacylglycerol lipase (MAGL) (Mus musculus, UniProt O35678); assay: competitive ABPP in mouse brain lysate at […] ([…] decrease of MAGL signal); type: cell-based
T2 construct: gene Mgll
T2 sequence (O35678 1-303): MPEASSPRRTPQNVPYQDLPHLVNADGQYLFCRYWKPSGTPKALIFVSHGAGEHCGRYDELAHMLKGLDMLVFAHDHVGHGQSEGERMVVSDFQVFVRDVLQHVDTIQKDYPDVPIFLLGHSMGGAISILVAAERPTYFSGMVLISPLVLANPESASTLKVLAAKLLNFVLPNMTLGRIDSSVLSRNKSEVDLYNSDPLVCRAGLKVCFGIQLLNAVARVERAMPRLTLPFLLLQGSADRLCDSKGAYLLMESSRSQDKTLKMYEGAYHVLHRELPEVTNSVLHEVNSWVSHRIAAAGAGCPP

`O=C(Oc1ccc([N+](=O)[O-])cc1)N1CCC(C(O)(c2ccc3c(c2)OCO3)c2ccc3c(c2)OCO3)CC1` [JZL 184] showed an inhibition at 10 µM [1] of 83% and an inhibition at 10 µM [2] of 78%.
